Consider 21 compounds from patent US11066414B2, “Cot modulators and methods of use thereof” (Gilead Sciences, Inc., priority 2015, dated 2021).

The subject of one test is TNFα. In words: Cot Monocyte TNFα Cell Based Assay.
The next test deals with Human Cot (Homo sapiens (Human), UniProt P41279). In words: High Throughput Cot Biochemical Assay. The note with it: Cot HTRF (TR-FRET KinEASE) biochemical assay, 400 μM ATP. (In TR-FRET formats the signal depends on donor and acceptor labels being close together.)
Sequence of Human Cot (P41279 30-397): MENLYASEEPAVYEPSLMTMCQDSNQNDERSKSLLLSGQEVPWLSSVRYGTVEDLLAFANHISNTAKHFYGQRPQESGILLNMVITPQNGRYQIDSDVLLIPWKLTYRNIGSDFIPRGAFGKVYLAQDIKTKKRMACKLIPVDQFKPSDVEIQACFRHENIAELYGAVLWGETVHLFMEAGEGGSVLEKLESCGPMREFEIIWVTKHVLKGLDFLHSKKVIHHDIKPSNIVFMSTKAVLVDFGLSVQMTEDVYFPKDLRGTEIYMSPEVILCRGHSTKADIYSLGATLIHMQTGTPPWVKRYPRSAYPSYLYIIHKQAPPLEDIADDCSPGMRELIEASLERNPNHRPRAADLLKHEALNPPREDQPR
[1] abbreviates: Homo sapiens, Monocyte, read-out: EC50 TNF, LPS-stimulated human monocytes, TNFα TR-FRET.
Setting [2] is: read-out: EC50 TNF, LPS-stimulated human monocytes, TNFα TR-FRET.

Where two headings read alike, the source gives them in different places.

Experimental for TNFα: The cell suspension was then plated at a density of 5,000 cells/well onto black 384 well Greiner clear bottom plates. Plates were pre-spotted with test compounds and serially diluted in DMSO where 200 nL/well were delivered using the Echo 550 acoustic liquid dispenser (Labcyte®) for a final DMSO concentration of 0.5%. Plated cells were treated with compound for 1 hour at 37° C. Cells were then stimulated with 50 pg/ml of LPS (Sigma) excluding outside columns of plate used for unstimulated cell control wells. Cells were incubated for an additional 4 hours at 37° C. Cells were then spun out of the media and 5 μl of sample were taken and analyzed for total TNFα content using the TR-FRET Human TNFα detection system (CisBio). This system utilizes two labeled antibodies (cryptate and XL665) that bind to two different epitopes of the TNFα molecule and produce FRET signal proportional to the concentration of TNFα in the sample. […] Plates were covered with clear seals and incubated at room temp overnight. […] Percent of control was calculated as follows: % Control=100×(RatioSample−Ratio0% Stimulation)/(Ratio100% Stimulation−Ratio0% Stimulation) where unstimulated cells (0% stimulation) were the negative control and stimulated cells (100% stimulation) were used as the positive control.

The EC50 is the concentration that produces a half-maximal response. One may read the IC50 as the point on the concentration scale where inhibition reaches its midpoint. Regarding `CC(C)(CNc1c(C#N)cnc2c(Cl)cc(N[C@H](c3cn(C4(C(F)F)CC4)nn3)c3ccc(F)c4ncccc34)cc12)C(F)(F)F` [Example 918, (S)-8-chloro-6-(((1-(1-(difluoromethyl)cyclopropyl)-1H-1,2,3-triazol-4-yl)(8-fluoroquinolin-5-yl)methyl)amino)-4-((3,3,3-trifluoro-2,2-dimethylpropyl)amino)quinoline-3-carbonitrile], the EC50 in the test on TNFα (setting [1]) stood at 42 nM. The same compound came in with a concentration for half-maximal inhibition (IC50) at Human Cot (IC50 HTRF) of 3 nM.
The corresponding values for `CC1(n2cc([C@@H](Nc3cc(Cl)c4ncc(C#N)c(NCC(C)(C)C(F)(F)F)c4c3)c3ccc(F)c4ncccc34)nn2)CC1` [Example 919, (S)-8-chloro-6-(((8-fluoroquinolin-5-yl)(1-(1-methylcyclopropyl)-1H-1,2,3-triazol-4-yl)methyl)amino)-4-((3,3,3-trifluoro-2,2-dimethylpropyl)amino)quinoline-3-carbonitrile] are 49 nM and 2 nM.
For the compound `CC(C)(C)CNc1c(C#N)cnc2c(Cl)cc(N[C@H](c3cn(C45CC(C4)C5)nn3)c3ccc(F)c4ncccc34)cc12` [Example 920, (S)-6-(((1-(bicyclo[1.1.1]pentan-1-yl)-1H-1,2,3-triazol-4-yl)(8-fluoroquinolin-5-yl)methyl)amino)-8-chloro-4-(neopentylamino)quinoline-3-carbonitrile], the concentration giving a half-maximal response (EC50) in the test with TNFα (setting [1]) came to 28 nM. On Human Cot (IC50 HTRF), this compound had a half-inhibitory concentration (IC50) of 3 nM.
The corresponding values for `CC(C)(C)CNc1c(C#N)cnc2c(Cl)cc(N[C@H](c3cn(C4(C(F)(F)F)CC4)nn3)c3ccc(Cl)c4ncccc34)cc12` [Example 921, (S)-8-chloro-6-(((8-chloroquinolin-5-yl)(1-(1-(trifluoromethyl)cyclopropyl)-1H-1,2,3-triazol-4-yl)methyl)amino)-4-(neopentylamino)quinoline-3-carbonitrile] are 187 nM and 17 nM.
For `COc1nccc2c([C@H](Nc3cc(Cl)c4ncc(C#N)c(NCC(C)(C)C)c4c3)c3nnn(C4(C(F)(F)F)CC4)c3F)cccc12` [Example 922, (S)-8-chloro-6-(((5-fluoro-1-(1-(trifluoromethyl)cyclopropyl)-1H-1,2,3-triazol-4-yl)(1-methoxylsoquinolin-5-yl)methyl)amino)-4-(neopentylamino)quinoline-3-carbonitrile], the 50% effective concentration (EC50) in the test with TNFα (setting [2]) came out at 225 nM. The IC50 on Human Cot (read-out: IC50 HTRF) is 11 nM.
The like results for `COc1nccc2c([C@H](Nc3cc(Cl)c4ncc(C#N)c(NCC(C)(C)C)c4c3)c3nnn(C4(C(F)F)CC4)c3F)cccc12` [Example 923, (S)-8-chloro-6-(((1-(1-(difluoromethyl)cyclopropyl)-5-fluoro-1H-1,2,3-triazol-4-yl)(1-methoxylsoquinolin-5-yl)methyl)amino)-4-(neopentylamino)quinoline-3-carbonitrile] were, in that order, 258 nM and 16 nM.
The like results for `COc1nccc2c([C@H](Nc3cc(Cl)c4ncc(C#N)c(NCC(C)(C)C(F)(F)F)c4c3)c3cn(C4(C)CC4)nn3)cccc12` [Example 927, (S)-8-chloro-6-(((1-methoxylsoquinolin-5-yl)(1-(1-methylcyclopropyl)-1H-1,2,3-triazol-4-yl)methyl)amino)-4-((3,3,3-trifluoro-2,2-dimethylpropyl)amino)quinoline-3-carbonitrile] were, in that order, 124 nM and 6 nM.
The like results for `COc1nccc2c([C@H](Nc3cc(Cl)c4ncc(C#N)c(NCC(C)(C)C)c4c3)c3cn(C4(C(F)(F)F)CC4)nn3)cccc12` [Example 929, (S)-8-chloro-6-(((1-methoxylsoquinolin-5-yl)(1-(1-(trifluoromethyl)cyclopropyl)-1H-1,2,3-triazol-4-yl)methyl)amino)-4-(neopentylamino)quinoline-3-carbonitrile] were, in that order, 157 nM and 11 nM.
With `COc1ccc2c([C@H](Nc3cc(Cl)c4ncc(C#N)c(NCC(C)(C)C)c4c3)c3cn(C4(C(F)(F)F)CC4)nn3)cccc2n1` [Example 930, (S)-8-chloro-6-(((2-methoxyquinolin-5-yl)(1-(1-(trifluoromethyl)cyclopropyl)-1H-1,2,3-triazol-4-yl)methyl)amino)-4-(neopentylamino)quinoline-3-carbonitrile], in the test on TNFα (setting [1]), the concentration giving a half-maximal response (EC50) amounted to 504 nM. Also, half-maximal inhibition on Human Cot (IC50 HTRF) (IC50) was put at 33 nM.
Take `COc1nccc2c([C@H](Nc3cc(Cl)c4ncc(C#N)c(NCC(C)(C)C)c4c3)c3cn(C(CF)CF)nn3)cccc12` [Example 933, (S)-8-chloro-6-(((1-(1,3-difluoropropan-2-yl)-1H-1,2,3-triazol-4-yl)(1-methoxylsoquinolin-5-yl)methyl)amino)-4-(neopentylamino)quinoline-3-carbonitrile]: the EC50 in the test on TNFα (setting [2]) came to 247 nM. Besides, the half-maximal inhibitory concentration (IC50) at Human Cot (read-out: IC50 HTRF) was determined as 29 nM.
The corresponding values for `COc1nccc2c([C@H](Nc3cc(Cl)c4ncc(C#N)c(NCC(C)(C)C(F)(F)F)c4c3)c3cn(C4(C(F)F)CC4)nn3)cccc12` [Example 934, (S)-8-chloro-6-(((1-(1-(difluoromethyl)cyclopropyl)-1H-1,2,3-triazol-4-yl)(1-methoxylsoquinolin-5-yl)methyl)amino)-4-((3,3,3-trifluoro-2,2-dimethylpropyl)amino)quinoline-3-carbonitrile] are 81 nM and 7 nM.
`CC(C)(C)CNc1c(C#N)cnc2c(Cl)cc(N[C@@H](c3ccc4nccn4c3)c3cn(C4(C(F)(F)F)CC4)nn3)cc12` [Example 935, (S)-8-chloro-6-((imidazo[1,2-a]pyridin-6-yl(1-(1-(trifluoromethyl)cyclopropyl)-1H-1,2,3-triazol-4-yl)methyl)amino)-4-(neopentylamino)quinoline-3-carbonitrile]: the concentration giving a half-maximal response (EC50) in the test with TNFα (setting [1]) amounted to 424 nM. Also, half-maximal inhibition on Human Cot (IC50 HTRF) (IC50) required 24 nM.
The corresponding values for `Cn1cccc([C@H](Nc2cc(Cl)c3ncc(C#N)c(NCC(C)(C)C)c3c2)c2cn(C3(C(F)(F)F)CC3)nn2)c1=O` [Example 936, (S)-8-chloro-6-(((1-methyl-2-oxo-1,2-dihydropyridin-3-yl)(1-(1-(trifluoromethyl)cyclopropyl)-1H-1,2,3-triazol-4-yl)methyl)amino)-4-(neopentylamino)quinoline-3-carbonitrile] are 287 nM and 18 nM.
The corresponding values for `Cc1c([C@H](Nc2cc(Cl)c3ncc(C#N)c(NCC(C)(C)C)c3c2)c2cn(C3(C(F)(F)F)CC3)nn2)ccnc1Cl` [Example 938, (S)-8-chloro-6-(((2-chloro-3-methylpyridin-4-yl)(1-(1-(trifluoromethyl)cyclopropyl)-1H-1,2,3-triazol-4-yl)methyl)amino)-4-(neopentylamino)quinoline-3-carbonitrile] are 223 nM and 26 nM.
The like results for `Cn1ccc2c([C@H](Nc3cc(Cl)c4ncc(C#N)c(NCC(C)(C)C)c4c3)c3cn(C45CCC(CC4)CC5)nn3)cccc2c1=O` [Example 939, (S)-6-(((1-(bicyclo[2.2.2]octan-1-yl)-1H-1,2,3-triazol-4-yl)(2-methyl-1-oxo-1,2-dihydroisoquinolin-5-yl)methyl)amino)-8-chloro-4-(neopentylamino)quinoline-3-carbonitrile] were, in that order, 104 nM and 18 nM.
As for `CC(C)(CNc1c(C#N)cnc2c(Cl)cc(N[C@H](c3cn(C4(C(F)F)CC4)nn3)c3cccc4ncccc34)cc12)C(F)(F)F` [Example 940, (S)-8-chloro-6-(((1-(1-(difluoromethyl)cyclopropyl)-1H-1,2,3-triazol-4-yl)(quinolin-5-yl)methyl)amino)-4-((3,3,3-trifluoro-2,2-dimethylpropyl)amino)quinoline-3-carbonitrile], the EC50 in the test on TNFα (setting [1]) was 86 nM. This compound registered a half-maximal inhibitory concentration (IC50) against Human Cot (IC50 HTRF) of 7 nM.
The like results for `COc1cc([C@H](Nc2cc(Cl)c3ncc(C#N)c(NCC(C)(C)C)c3c2)c2cn(C3(C(F)(F)F)CC3)nn2)ccn1` [Example 941, (S)-8-chloro-6-(((2-methoxypyridin-4-yl)(1-(1-(trifluoromethyl)cyclopropyl)-1H-1,2,3-triazol-4-yl)methyl)amino)-4-(neopentylamino)quinoline-3-carbonitrile] were, in that order, 804 nM and 64 nM.
The like results for `Cc1nc(F)ccc1[C@H](Nc1cc(Cl)c2ncc(C#N)c(NCC(C)(C)C)c2c1)c1nnn(C2(C(F)F)CC2)c1I` [Example 945, (S)-8-chloro-6-(((1-(1-(difluoromethyl)cyclopropyl)-5-iodo-1H-1,2,3-triazol-4-yl)(6-fluoro-2-methylpyridin-3-yl)methyl)amino)-4-(neopentylamino)quinoline-3-carbonitrile] were, in that order, 142 nM and 17 nM.
The like results for `Cc1nc(F)ccc1[C@H](Nc1cc(Cl)c2ncc(C#N)c(NCC(C)(C)C)c2c1)c1nnn(C2CC2)c1C1CC1` [Example 946, (S)-8-chloro-6-(((1,5-dicyclopropyl-1H-1,2,3-triazol-4-yl)(6-fluoro-2-methylpyridin-3-yl)methyl)amino)-4-(neopentylamino)quinoline-3-carbonitrile] were, in that order, 153 nM and 5 nM.
`Cc1nc(F)ccc1[C@H](Nc1cc(Cl)c2ncc(C#N)c(NCC(C)(C)C(F)(F)F)c2c1)c1nnn(C2(C(F)F)CC2)c1F` [Example 948, (S)-8-chloro-6-(((1-(1-(difluoromethyl)cyclopropyl)-5-fluoro-1H-1,2,3-triazol-4-yl)(6-fluoro-2-methylpyridin-3-yl)methyl)amino)-4-((3,3,3-trifluoro-2,2-dimethylpropyl)amino)-quinoline-3-carbonitrile]: the EC50 with TNFα (setting [1]) amounted to 99 nM. Besides, the IC50 against Human Cot (IC50 HTRF) stood at 5 nM.
The like results for `Cc1nc(F)ccc1[C@H](Nc1cc(Cl)c2ncc(C#N)c(NCC(C)(C)C)c2c1)c1nnn(C2(C3CC3)CC2)c1F` [Example 949, (S)-6-(((1-([1,1′-bi(cyclopropan)]-1-yl)-5-fluoro-1H-1,2,3-triazol-4-yl)(6-fluoro-2-methylpyridin-3-yl)methyl)amino)-8-chloro-4-(neopentylamino)quinoline-3-carbonitrile] were, in that order, 34 nM and 4 nM.
